# Data published in patent US8562946B2, “Miniaturized 62Zn/62Cu generator for high concentration clinical delivery of 62Cu kit formulation for the facile preparation of radiolabeled Cu-bis(thiosemicarbazone) compounds” (Proportional Technologies, Inc., priority 2003, dated 2013).
# Like-named read-outs stand apart in the source and are kept apart here.
# How the values were obtained:
# [1] = cited from earlier work
# [2] = octanol/water partition coefficients of Cu bis(thiosemicarbazone) complexes; type: physicochemical
# [3] = ligand solubility (DMSO, water); type: physicochemical; conditions: crystalline form dissolved in DMSO
# Experimental: Studies evaluating the compatibility of the bis(thiosemicarbazone) ligands with lyophilization based kit synthesis were conducted using H2PTSM as a model compound. The first of these studies evaluated the feasibility of ligand lyophilization and rapid reconstitution. The entire class of bis(thiosemicarbazone) compounds is very insoluble in water. Consequently, in order to prepare a principally aqueous solution for lyophilization, the crystalline form of the H2PTSM was dissolved at the maximum concentration in dimethylsulfoxide (DMSO), (200 mg/mL H2PTSM). […] To minimize the possibility of ligand precipitation, the DMSO solution was added to hot water (90° C.) during rapid stifling. This solution was then cooled to room temperature and assayed for potency using a spectrophotometer. The very small amount of DMSO in the aqueous solution is expected to sublimate along with water during lyophilization. In order to ensure maximum potency after lyophilization, an excipient (either dextrose [6.7 mg/mL], trehalose [6.7 mg/mL] or sodium acetate [5.4 mg/mL]) was added. The purpose of the excipient was to prevent the ligand from crystallizing out by maintaining dispersion in the cake formed during lyophilization. The sodium acetate performed the added function of buffering the final product to acceptable pH upon addition of 0.1-0.15 mL of ^62Zn/^62Cu generator eluted solution. […]
# [4] = most animal species other than humans; cited from earlier work
# [5] = in humans; cited from earlier work
smiles,measurement,setting,value
"CCC(C=NNC(N)=S)=NNC(N)=S.[Cu] [ETS, ^62Cu ethylglyoxal bis(thiosemicarbazone)]",binding to blood plasma,[1],low reversible binding
same,log P,"[2]; octanol/water, from measured partition coefficients P of the corresponding 67Cu-complexes",1.35
"CNC(=S)NN=C(C)C(C)=NNC(=S)NC [H2ATSM, diacetyl-bis(N4-methylthiosemicarbazone)]",difference in octanol/water partition coefficients,[2]; H2ATSM vs H2PTSM (Table 2),0.34
"CNC(=S)NN=CC(C)=NNC(=S)NC [H2PTSM, pyruvaldehyde bis(N4-methylthiosemicarbazone)]",maximum concentration in dimethylsulfoxide (DMSO),[3],200 mg/mL
"CN=C([S-])N/N=C/C(C)=N/NC([S-])=NC.[Cu+2] [PTSM, Copper(II) ^62Cu pyruvaldehyde bis(N4-methylthiosemicarbazone)]",binding to blood,[4],low binding
same,binding to blood,[5],significant binding
